Measured values: patent publication US20260191864A1, “Uses of Hydroimidazopyridopyrimidinone Derivatives for Managing Aneurysms or Other Vascular Conditions or Diseases” (Emory University, priority 2022, published 2026)

Experiments:
[1] = test system: aortic aneurysms; details: mice; aortic diameter at day 14 vs baseline (FIGS. 1A-1C)
Excerpt: It is contemplated that VSMC phenotypic modulation is responsible for foam cell formation during atherosclerosis.
Data represents percentage of maximal aortic dilation on day 14 of each animal. The recording and subsequent analysis were blinded to the assignment of the treatment regimen.
Images were quantified using ImageJ plus/color deconvolution plugin.

[2] = test system: vascular smooth muscle; assay: vascular smooth muscle differentiation in vivo (ACTA2 smooth muscle actin staining); details: mice, ACTA2 staining (FIG. 1D)

Cc1ccccc1CN1C(=O)C2=C(CCN(Cc3ccccc3)C2)N2CCN=C12 [ONC201, 7-benzyl-4-(2-methylbenzyl)-2,4,6,7,8,9-hexahydroimidazo[1,2-a]pyrido[3,4-e]pyrimidin-5 (1H)-one]
formation of aortic aneurysms [1]: inhibits the formation of aortic aneurysms in mice
vascular smooth muscle differentiation [2]: induces vascular smooth muscle differentiation in vivo
